Literature values, collected in patent US10265547B2, “Internal ultrasound gel” (SmileSonica Inc., priority 2012, dated 2019).

What was measured:
Escherichia coli = conditions: Makinen and Soderling 1981
lactobacillus bulgaricus = conditions: Makinen and Soderling 1981
Streptococcus mutans = conditions: xylitol in the range of 0.1% to 5%
Streptococcus pneumonia = conditions: nasopharyngeal flora, Kontiokari et al. 1995
saccharomyces cerevisiae = conditions: Makinen and Soderling 1981
salmonella typhi = conditions: Makinen and Soderling 1981
clostridium butyricum = conditions: Makinen and Soderling 1981
[1] = average adult of 70 kg

| SMILES | growth inhibition (Escherichia coli) | growth inhibition (lactobacillus bulgaricus) | reduction of oral bacterial flora (Streptococcus mutans) | growth inhibition (Streptococcus pneumonia) | growth inhibition (saccharomyces cerevisiae) | growth inhibition (salmonella typhi) | growth inhibition (clostridium butyricum) | acceptable daily ingestion intake [1] [mg daily] |
| --- | --- | --- | --- | --- | --- | --- | --- | --- |
| OC[C@@H](O)[C@H](O)[C@@H](O)CO [xylitol] | inhibiting the growth | inhibiting the growth | reduce oral bacterial flora | inhibiting the growth | inhibiting the growth | inhibiting the growth | inhibiting the growth |  |
| C/C=C/C=C/C(=O)[O-].[K+] [potassium sorbate] |  |  |  |  |  |  |  | 875 |
